pIC50: −log10 of the molar value. Counter-ions that a name gives are not always drawn.
The molecules below were run against Steroidogenic factor 1 (Homo sapiens, UniProt Q13285) (assay: blockers of SF-1 LBD reporter transcription – cell-based, CHO-K1, Gal4-SF-1 LBD, luciferase luminescence, dose response (AID 600)). Conditions: not given.
Steroidogenic factor 1, sequence (Q13285 whole entry, the tested form may be a part): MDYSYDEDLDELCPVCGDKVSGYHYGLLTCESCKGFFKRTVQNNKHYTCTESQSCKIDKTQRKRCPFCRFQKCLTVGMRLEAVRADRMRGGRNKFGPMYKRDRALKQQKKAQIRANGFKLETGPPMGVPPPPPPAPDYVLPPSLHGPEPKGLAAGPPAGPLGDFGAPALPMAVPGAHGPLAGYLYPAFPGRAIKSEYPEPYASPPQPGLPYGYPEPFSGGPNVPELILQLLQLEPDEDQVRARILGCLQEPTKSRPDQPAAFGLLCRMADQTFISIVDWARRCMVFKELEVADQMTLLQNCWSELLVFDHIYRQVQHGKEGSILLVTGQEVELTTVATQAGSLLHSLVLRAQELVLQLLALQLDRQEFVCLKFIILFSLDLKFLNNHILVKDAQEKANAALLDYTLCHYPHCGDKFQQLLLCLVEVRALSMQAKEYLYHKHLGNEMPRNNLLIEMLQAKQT
With `Cc1cccc(-n2ncc3c(N4CCOCC4)ncnc32)c1` [4-[1-(3-methylphenyl)-4-pyrazolo[3,4-d]pyrimidinyl]morpholine] the pIC50 was 5.40. With `CCOC(=O)N1CCN(C(=O)C2CCN(c3ncnc4c3sc3cccc(F)c34)CC2)CC1` [4-[1-(9-fluorobenzothiopheno[3,2-d]pyrimidin-4-yl)isonipecotoyl]piperazine-1-carboxylic acid ethyl ester] the pIC50 was 5.10. In the case of `COC(=O)c1ccc(-n2c(O)cc(N3CCC(n4c(=O)[nH]c5ccccc54)CC3)c2O)cc1` [4-[2,5-dioxo-3-[4-(2-oxo-3H-benzimidazol-1-yl)-1-piperidinyl]-1-pyrrolidinyl]benzoic acid methyl ester], the pIC50 was under 4.00. Molecule `COc1ccc(OC)c(Nc2nc(-c3ccc(O)c(O)c3)cs2)c1` [4-[2-(2,5-Dimethoxy-phenylamino)-thiazol-4-yl]-benzene-1,2-diol] has a pIC50 of under 5.44. With `COC(=O)c1ccc(Oc2cc(C)nc(-n3nc(C)cc3C)n2)cc1` [4-[2-(3,5-dimethylpyrazol-1-yl)-6-methyl-pyrimidin-4-yl]oxybenzoic acid methyl ester] the pIC50 was 5.07. Work on `COc1ccccc1-c1nnc2sc(-c3ccc(N(C)C)cc3)nn12` [4-[3-(2-methoxyphenyl)-[1,2,4]triazolo[3,4-b][1,3,4]thiadiazol-6-yl]-N,N-dimethyl-aniline] yielded a pIC50 of 5.20. With `O=C(Oc1ccc(-c2nc(-c3ccccn3)no2)cc1)c1ccccc1` [4-[3-(2-pyridinyl)-1,2,4-oxadiazol-5-yl]phenyl benzoate] the pIC50 was 5.17. `COc1ccc(-c2noc(CCCC(=O)NCCc3ccccc3)n2)cc1OC` [4-[3-(3,4-dimethoxyphenyl)-1,2,4-oxadiazol-5-yl]-N-(2-phenylethyl)butanamide] showed a pIC50 of 5.38. Molecule `COc1ccc(-c2noc(CCCC(=O)O)n2)cc1` [4-[3-(4-methoxyphenyl)-1,2,4-oxadiazol-5-yl]butanoic acid] has a pIC50 of 6.20. Work on `Fc1ccc2[nH]c3c(N4CCN(Cc5ccc6c(c5)OCO6)CC4)ncnc3c2c1` [4-[4-(1,3-benzodioxol-5-ylmethyl)-1-piperazinyl]-8-fluoro-5H-pyrimido[5,4-b]indole] yielded a pIC50 of 5.11. `Clc1ccc(OCCN2CCN(c3ncnc4sccc34)CC2)cc1` [4-[4-[2-(4-chloranylphenoxy)ethyl]piperazin-1-yl]thieno[2,3-d]pyrimidine] showed a pIC50 of 5.46. With `Cn1nc(CC(=O)Nc2ccc(N3CCN(C(=O)OC(C)(C)C)CC3)cc2)c2ccccc2c1=O` [4-[4-[[2-(3-methyl-4-oxo-1-phthalazinyl)-1-oxoethyl]amino]phenyl]-1-piperazinecarboxylic acid tert-butyl ester] the pIC50 was 5.59. For `CCOc1ccc(-c2cc(CCCC(=O)NCCCOC)no2)cc1` [4-[5-(4-ethoxyphenyl)-1,2-oxazol-3-yl]-N-(3-methoxypropyl)butanamide], the pIC50 was 5.35. `COc1cc(CN2CCN(c3cc(C)ccc3C)CC2)ccc1O` [4-[[4-(2,5-dimethylphenyl)-1-piperazinyl]methyl]-2-methoxyphenol] was tested, and the pIC50 was 5.39. For `COc1cc(CN=O)ccc1OCc1ccc(C(=O)O)cc1` [4-[[4-(hydroximinomethyl)-2-methoxy-phenoxy]methyl]benzoic acid], the pIC50 was 5.94. Work on `CCN(CC)c1ccc2cc(NC(=O)CCC(=O)O)c(=O)oc2c1` [4-[[7-(diethylamino)-2-keto-chromen-3-yl]amino]-4-keto-butyric acid] yielded a pIC50 of 5.29. `CN(CC1CCCO1)S(=O)(=O)c1ccc(C(=O)Nc2nc(-c3ccccn3)cs2)cc1` (stereo not drawn) [4-[methyl(2-oxolanylmethyl)sulfamoyl]-N-[4-(2-pyridinyl)-2-thiazolyl]benzamide] showed a pIC50 of under 5.44. `CC(=O)c1c(C)[nH]c(C(=O)OCCCCN2C(=O)c3ccccc3C2=O)c1C` [4-acetyl-3,5-dimethyl-1H-pyrrole-2-carboxylic acid 4-(1,3-dioxo-2-isoindolyl)butyl ester] was tested, and the pIC50 was 5.59. Work on `Nc1nonc1C(=O)NCCNCc1cc(Br)ccc1OCc1ccc(F)cc1` [4-amino-N-[2-[[5-bromo-2-(4-fluorobenzyl)oxy-benzyl]amino]ethyl]furazan-3-carboxamide;hydrochloride] yielded a pIC50 of 5.35. For `COC(=O)c1nn(-c2ccc(-c3ccccc3)cc2)cc1O` [4-hydroxy-1-(4-phenylphenyl)-3-pyrazolecarboxylic acid methyl ester], the pIC50 was under 4.48. Work on `Cc1ccc(-c2cnc(NC(=O)CCC(=O)N3CCCCC3)n2C)cc1` [4-keto-N-[1-methyl-5-(p-tolyl)imidazol-2-yl]-4-piperidino-butyramide] yielded a pIC50 of under 4.00. `COc1ccc(C(=O)Nn2c(SCC(=O)NCC3CCCO3)nc3ccccc3c2=O)cc1` (stereo not drawn) [4-methoxy-N-[4-oxidanylidene-2-[2-oxidanylidene-2-(oxolan-2-ylmethylamino)ethyl]sulfanyl-quinazolin-3-yl]benzamide] gave a pIC50 of 5.37. `COc1ccc(C(=O)NC(=O)Nc2cc(C)ccn2)cc1` [4-methoxy-N-[(4-methyl-2-pyridyl)carbamoyl]benzamide] showed a pIC50 of under 5.91. In the case of `CCOc1ccc(OCc2cccc(C(=O)N3CCOCC3)c2)cc1` [4-{3-[(4-ethoxyphenoxy)methyl]benzoyl}morpholine], the pIC50 was under 5.91. For `Cc1c2ccncc2c(C)c2c1[nH]c1ccccc12` [5,11-dimethyl-2H-pyrido[4,3-b]carbazole], the pIC50 was under 5.44. In the case of `O=C(NC1CC1)c1ccc(-c2nc3ccccc3s2)s1` [5-(1,3-benzothiazol-2-yl)-N-cyclopropyl-2-thiophenecarboxamide], the pIC50 was 5.55. In the case of `Cc1oc(-c2ccc3c(c2)OCCO3)cc1C(=O)O` [5-(2,3-dihydro-1,4-benzodioxin-6-yl)-2-methyl-3-furancarboxylic acid], the pIC50 was 5.26. `COc1ccc(-c2nc(-c3ccccc3)no2)c(OC)c1` [5-(2,4-dimethoxyphenyl)-3-phenyl-1,2,4-oxadiazole] showed a pIC50 of 5.45. `Cc1ccc(-c2nc(-c3ccccc3)no2)c(Cl)c1` [5-(2-chloranyl-4-methyl-phenyl)-3-phenyl-1,2,4-oxadiazole] gave a pIC50 of 5.33. In the case of `c1ccc(-c2noc(-c3ccc4ccccc4c3)n2)cc1` [5-(2-naphthalenyl)-3-phenyl-1,2,4-oxadiazole], the pIC50 was 5.05. `Clc1ccc(-c2nc(-c3ccccn3)no2)cc1Cl` [5-(3,4-dichlorophenyl)-3-(2-pyridinyl)-1,2,4-oxadiazole] showed a pIC50 of 5.25. `Cc1ccc(-c2nc(-c3ccccn3)no2)cc1Cl` [5-(3-chloranyl-4-methyl-phenyl)-3-pyridin-2-yl-1,2,4-oxadiazole] gave a pIC50 of under 5.91. With `Cn1cc(C=Nn2cnc3scc(-c4ccc(Cl)cc4)c3c2=O)c2ccccc21` [5-(4-chlorophenyl)-3-[(1-methyl-3-indolyl)methylideneamino]-4-thieno[2,3-d]pyrimidinone] the pIC50 was 5.04. `Fc1ccc(-c2nnc(NC3=NCCCCC3)o2)cc1` [5-(4-fluorophenyl)-N-(3,4,5,6-tetrahydro-2H-azepin-7-yl)-1,3,4-oxadiazol-2-amine] showed a pIC50 of 5.32. Work on `Cc1ccc(-c2cc(C(=O)N3CCCC3)no2)cc1` [5-(4-methylphenyl)-3-(1-pyrrolidinylcarbonyl)isoxazole] yielded a pIC50 of under 5.44. `Cc1ccc(-c2nc(-c3ccccn3)no2)cc1` [5-(4-methylphenyl)-3-(2-pyridinyl)-1,2,4-oxadiazole] gave a pIC50 of 5.90. For `Cc1ccc(-c2nnc(Nc3ccccc3)o2)cc1` [5-(4-methylphenyl)-N-phenyl-1,3,4-oxadiazol-2-amine], the pIC50 was 5.29. In the case of `Oc1c(CN2CCOCC2)cc(COCc2ccccc2)c2cccnc12` [5-(benzoxymethyl)-7-(morpholinomethyl)quinolin-8-ol], the pIC50 was 5.22. Molecule `COCc1cc(CN2CCCC2)c(O)c2ncccc12` [5-(methoxymethyl)-7-(1-pyrrolidinylmethyl)-8-quinolinol] has a pIC50 of 5.38. Work on `Cc1cnc(C(=O)Nc2cccc3cccnc23)cn1` [5-Methyl-pyrazine-2-carboxylic acid quinolin-8-ylamide] yielded a pIC50 of 5.05. `COc1cccc(CNC(=O)c2nnn(CC(=O)Nc3ccc(C)c(C)c3)c2N)c1` [5-amino-1-[2-(3,4-dimethylanilino)-2-keto-ethyl]-N-m-anisyl-triazole-4-carboxamide] showed a pIC50 of 5.06. For `Oc1c(CN2CCCCC2)cc(Br)c2cccnc12` [5-bromanyl-7-(piperidin-1-ylmethyl)quinolin-8-ol], the pIC50 was under 5.44. `O=S(=O)(NCc1ccncc1)c1ccc(Br)s1` [5-bromanyl-N-(pyridin-4-ylmethyl)thiophene-2-sulfonamide] gave a pIC50 of 6.97.

Same assay, conditions: inactive by the depositor's call
Molecule `COc1ccc2c(c1)[nH]c1c(N3CCN(Cc4ccc5c(c4)OCO5)CC3)ncnc12` [4-[4-(1,3-benzodioxol-5-ylmethyl)piperazin-1-yl]-7-methoxy-5H-pyrimido[5,4-b]indole] has a pIC50 of 4.88. With `COc1cccc(N2CCN(c3ncnc4c3[nH]c3ccccc34)CC2C)c1` (stereo not drawn) [4-[4-(3-methoxyphenyl)-3-methyl-1-piperazinyl]-5H-pyrimido[5,4-b]indole] the pIC50 was 4.54. Molecule `Oc1ccc(N2CCN(c3ncnc4sc5c(c34)CCC5)CC2)cc1` [4-[4-(7,8-dihydro-6H-cyclopenta[4,5]thieno[1,2-c]pyrimidin-1-yl)-1-piperazinyl]phenol] has a pIC50 of 4.86. For `CCOC(=O)N1CCC(NC(=O)C2CCCN(Cc3nc(-c4cccc(Cl)c4)oc3C)C2)CC1` (stereo not drawn) [4-[[1-[[2-(3-chlorophenyl)-5-methyl-oxazol-4-yl]methyl]nipecotoyl]amino]piperidine-1-carboxylic acid ethyl ester], the pIC50 was 4.95. `CCCCOc1ncnc2c1[nH]c1ccc(F)cc12` [4-butoxy-8-fluoranyl-5H-pyrimido[5,4-b]indole] gave a pIC50 of 4.94. `CCCCOc1ccc(S(=O)(=O)Nc2cccnc2)cc1` [4-butoxy-N-(3-pyridinyl)benzenesulfonamide] showed a pIC50 of 4.60. In the case of `COc1ccc(-c2cc(C(=O)O)c(C)o2)cc1OC` [5-(3,4-dimethoxyphenyl)-2-methyl-3-furancarboxylic acid], the pIC50 was 4.96. `Oc1c(CN2CCCCC2)cc(COCc2ccccc2)c2cccnc12` [5-(benzoxymethyl)-7-(piperidinomethyl)quinolin-8-ol] gave a pIC50 of 4.57. Work on `FC(F)(F)c1ccc(N2CCN(c3cc(-c4ccccc4)nc4ncnn34)CC2)nc1` [5-Phenyl-7-[4-(5-trifluoromethyl-pyridin-2-yl)-piperazin-1-yl]-[1,2,4]triazolo[1,5-a]pyrimidine] yielded a pIC50 of 4.67. Molecule `CCOC(=O)c1oc2ccc(S(=O)(=O)Nc3ccc4c(c3)n(C)c(=O)n4C)cc2c1C` [5-[(1,3-dimethyl-2-oxo-5-benzimidazolyl)sulfamoyl]-3-methyl-2-benzofurancarboxylic acid ethyl ester] has a pIC50 of 4.59.
